Patent publication US8920814B2, “Bacterial endotoxin for the prevention of metabolic disorders and bacterial infections” (The Governors of the University of Alberta, priority 2007, dated 2014)

Legend:
[1] = tested on: colon tissue; experiment: Ussing chamber permeability of colon tissue to 3H-mannitol and LPS; format: cell-based, feedlot steers; settings: for increase of permeability of colon tissue to 3H-mannitol: acidic pH 5.5 and presence of LPS (500 μg/mL), Ussing chamber
Source text: FIG. 6 is a graph depicting permeability of colon tissue (obtained from killed feedlot steers) to ^3H-labeled mannitol under different pH values and in the presence (▪) or absence (□) of lipopolysaccharide (LPS) from E. coli B:055 in an Ussing chamber.
FIG. 8 is a graph depicting translocation of LPS across colon tissue (obtained from killed feedlot steers) under different pH values and in the presence (▪) or absence (□) of lipopolysaccharide (LPS) from E. coli B:055 in an Ussing chamber.
(§1) Accordingly, we investigated whether common rumen fluid and colon concentrations of lipopolysaccharide (LPS) would affect the permeability of rumen and colon tissues to mannitol and LPS in Ussing chambers. In addition, this study was designed to answer the question whether acidic conditions similar to those found in the rumen fluid and colon during conditions of sub-acute and acute acidosis would affect the permeability of rumen and colon tissues to mannitol and LPS.
(§2) Mannitol is a monosaccharide with a molecular weight of 182 daltons and normally is not metabolized by mammalian tissues. Mannitol normally goes through mucosal tissues in small amounts and has been used to evaluate the integrity of mucosal barriers. […] Both acidic pH and presence of LPS disrupts mucosal membranes and make them leaky to bacteria and toxic compounds like endotoxin.
(§3) This means that LPS went through the mucosal membranes (rumen and colon tissues) independently of the pH value.

[2] = tested on: rumen tissue; experiment: Ussing chamber permeability of rumen tissue to 3H-mannitol and LPS; format: cell-based, feedlot steers; settings: for increase of permeability of rumen tissue to 3H-mannitol: acidic pH 4.5 and presence of LPS (500 μg/mL), Ussing chamber
Source text: FIG. 5 is a graph depicting permeability of rumen tissue (obtained from killed feedlot steers) to ^3H-labeled mannitol under different pH values and in the presence (▪) or absence (□) of lipopolysaccharide (LPS) from E. coli B:055 in an Ussing chamber.
FIG. 7 is a graph depicting translocation of LPS across rumen tissue (obtained from killed feedlot steers) under different pH values and in the presence (▪) or absence (□) of lipopolysaccharide (LPS) from E. coli B:055 in an Ussing chamber.
as §1, §2, §3

[3] = tested on: transition dairy cows; experiment: Clinical incidence of postpartal metabolic disorders after oral vaccination of transition cows; format: in vivo, Holstein cows; settings: for reduction of the incidence of metabolic disorders: vs oral saline
Source text: (§4) During their final 3 wk prepartum, 32 multiparous Holstein cows were housed in a tie-stall barn with wood shavings for bedding, the number at any given time varied depending on the number of cows at that stage of gestation. Cows were blocked based on their parity, previous milk production as well as their expected day of calving and randomly assigned to one of the four treatment groups (8 cows/group) in a randomized blocked design 2 wk before the expected day of calving until 4 wk postpartum. Cows were offered dry-period and early-lactation diets, formulated according to NRC recommendation (2001) for transition dairy cows.
Diets were mixed and offered as TMR individually once a day at 0600 h. Orts were recorded and discarded before the next feeding each day and the amount of feed was adjusted to ensure a 10% feed residual. Cows were milked twice a day at 0400 and 1500 h, and milk yield was recorded electronically every day for the first 28 days of lactation. All clinical disease and medication were recorded daily during the whole experimental period. The experiment was conducted at the University of Alberta Dairy Research and Technology Center, Edmonton, Canada. All cows were managed and treated in accordance with the guidelines established by the Canadian Council on Animal Care (1993) and all animal-related procedures were approved by the University of Alberta Faculty Animal Policy and Welfare Committee.
(§5) The four groups of cows were administered on d 14, 11, 7, and 4 before the expected day of parturition as well as on d 1 and 3 after parturition, one of the following treatments: (1) oral delivery of 2 mL of saline (0.15 M NaCl), (2) oral delivery of 2 mL of saline containing lipopolysaccharide (LPS) from Escherichia coli 0111:B4 (Sigma, St. Louis, Mo.), (3) intravenous delivery of 100 mL of saline (0.15 M NaCl), or (4) intravenous delivery of 100 mL of saline containing LPS from E. coli 0111:B4. A 5 mL syringe was used for administration of treatment into the oral cavity. The amount of LPS given to cows orally or intravenously (iv) was as follows: (1) on d 14 and 11 before the expected day of parturition 0.01 μg/kg of BW dissolved in 2 mL (oral) or 100 mL (iv) of saline, (2) on d 7 and 4 before the expected day of parturition 0.05 μg/kg of BW dissolved in 2 mL (oral) or 100 mL (iv) of saline, and (3) on d 1 and 3 after parturition 0.1 μg/kg of BW dissolved in 2 mL (oral) or 100 mL (iv) of saline. Cows were given one flat dose of LPS based on the 650 kg average body weight of cows at Dairy Research and Technology Transfer. Rectal temperature, respiration rate, and rumen contraction was measured from all cows 15 min before as well as 60, 120, 180, 240, 300, and 360 min after administration of treatment.

[4] = tested on: transition dairy cows; experiment: Plasma anti-LPS immunoglobulins A, G and M of transition cows given oral LPS; format: in vivo, Holstein cows; settings: around parturition
Source text: as §4
The four groups of cows were administered on d 14, 11, 7, and 4 before the expected day of parturition as well as on d 1 and 3 after parturition, one of the following treatments: (1) oral delivery of 2 mL of saline (0.15 M NaCl), (2) oral delivery of 2 mL of saline containing lipopolysaccharide (LPS) from Escherichia coli 0111:B4 (Sigma, St. Louis, Mo.), (3) intravenous delivery of 100 mL of saline (0.15 M NaCl), or (4) intravenous delivery of 100 mL of saline containing LPS from E. coli 0111:B4. A 5 mL syringe was used for administration of treatment into the oral cavity. […] Rectal temperature, respiration rate, and rumen contraction was measured from all cows 15 min before as well as 60, 120, 180, 240, 300, and 360 min after administration of treatment. […]
(§6) Blood was collected into 10-ml Vacutainer tubes (Beckton Dickinson and Co., Rutherford, N.J.) containing K3-EDTA, and plasma was prepared by centrifugation within 20 min. Plasma samples were stored at −20° C. until analyzed for concentrations of serum amyloid A (SAA), lipopolysaccharide-binding protein (LBP), haptoglobin, C-reactive protein (CRP), glucose, insulin, non-esterified fatty acids (NEFA), beta-hydroxybutyric acid (BHBA), lactate, cholesterol, cortisol, calcium, copper, iron, zinc as well as anti-LPS immunoglobulin A, G, and M.

[5] = tested on: transition dairy cows; experiment: Plasma metabolites, minerals and acute phase proteins of transition cows given LPS; format: in vivo, Holstein cows; settings: oral
Source text: as §4, §5
A catheter was introduced into the jugular vein 1 h before the administration of treatment to all cows in the experiment. Blood samples were obtained from the jugular catheter 15 min before as well as at 15, 30, 60, 120, 180, 240, 300, and 360 min after administration of treatment on d 14, 11, 7, and 4 before the expected day of parturition as well as on d 1 and 3 after parturition. Also, 1 single blood sample was obtained during d 10, 17, and 24 after parturition.
as §6

[6] = tested on: transition dairy cows; experiment: Clinical responses, dry matter intake and milk yield of transition cows given LPS; format: in vivo, Holstein cows; settings: oral; whole experimental period
Source text: We then investigated how transition cows respond clinically to repeated oral and intravenous exposure to an E. coli antigen (E. coli lipopolysaccharide—(“LPS”)) during the 2 weeks before and 1 week after calving, and to determine the effects of repeated oral or intravenous administration of E. coli LPS on eating behaviour and milk yield during the transition period.
During their final 3 wk prepartum, 32 multiparous Holstein cows were housed in a tie-stall barn with wood shavings for bedding, the number at any given time varied depending on the number of cows at that stage of gestation. Cows were blocked based on their parity, previous milk production as well as their expected day of calving and randomly assigned to one of the four treatment groups (8 cows/group) in a randomized blocked design 2 wk before the expected day of calving until 4 wk postpartum. […]
Diets were mixed and offered as TMR individually once a day at 0600 h. Orts were recorded and discarded before the next feeding each day and the amount of feed was adjusted to ensure a 10% feed residual. Cows were milked twice a day at 0400 and 1500 h, and milk yield was recorded electronically every day for the first 28 days of lactation. All clinical disease and medication were recorded daily during the whole experimental period. […]

[7] = listed as lipopolysaccharide (LPS) from Escherichia coli 0:B55
[8] = during 6 h after administration, first week after parturition

lipopolysaccharide (LPS) from E. coli B:055 [LPS from E. coli strain B:055]
increase of permeability of colon tissue to 3H-mannitol [1]: increase several fold
increase of permeability of colon tissue to 3H-mannitol [1, 7]: 5 fold
effect on permeability of colon tissue to mannitol ([1]; pH values between 5.5 and 7.4): did not affect
increase of permeability of rumen tissue to 3H-mannitol [2]: increase several fold
increase of permeability of rumen tissue to 3H-mannitol [2, 7]: 4 fold
effect on permeability of rumen tissue to mannitol ([2]; pH values between 5.5 and 7.4): did not affect

lipopolysaccharide (LPS) from Escherichia coli 0111:B4 [LPS from E. coli 0111:B4]
clinical record of individual cow ([3]; oral LPS group, one cow per block): Normal—Calved day 1, Lameness day 44, Mastitis day 71
reduction of the incidence of metabolic disorders ([3]; oral, after 30 d of parturition): 66%
cows affected by metabolic disorders ([3]; oral, first 30 days after parturition): not affected by any metabolic disorders
cows of the group affected (lameness and mastitis) ([3]; oral, more than 30 days after parturition, one cow): 12%
reduction of the incidence of metabolic disorders ([3]; oral, within the first 30 d after parturition): 100%
increase of plasma concentration of anti-LPS immunoglobulin M (IgM) [4]: several fold
plasma IgA antibodies against endotoxin vs control cows [4]: lower in vaccinated cows compared with the control ones, although the difference did not reach significant level
plasma anti-endotoxin IgG antibodies vs control cows [4]: lower
plasma glucose concentration vs control cows ([5]; 2 wk before and 1 wk after calving): did not change and were higher
plasma insulin vs control cows ([5]; around parturition): higher
plasma zinc ([5]; around parturition): prevented the decline
plasma copper ([5]; before and after calving): no changes
plasma BHBA concentration vs control cows [5, 8]: lower
plasma NEFA concentration vs control cows [5, 8]: lower
plasma cholesterol concentration vs control cows ([5]; during the 6 h after treatment, last day of the vaccination): Higher
plasma lipopolysaccharide-binding protein (LBP) vs control cows ([5]; especially first 3 days after calving): higher in control cows than in vaccinated ones
plasma serum amyloid A (SAA) vs control group ([5]; experimental period): no significant differences
plasma cholesterol concentration vs control cows ([5]; experimental period / first week after parturition): did not change between the two groups
plasma glucose concentration vs control cows ([5]; first week after calving, before and after vaccination (FIG. 17)): higher
dry matter intake vs control cows [6]: no differences
